{"source": "patent US9957472B2", "about": "“Deterministic high-density single-cell trap array” (Georgia Tech Research Corporation, priority 2011, dated 2018)", "key": {"[1]": {"tested_on": "Jurkat cells", "assay": "Calcium response of trapped Fluo-3-loaded Jurkat cells to ionomycin on chip (cell trap arrays with concentration gradient generator)", "format": "cell-based, human", "protocol": "Jurkat E6-1 human acute T cell lymphoma cells (ATCC) were cultured in RPMI 1640 medium with L-glutamine (Sigma-Aldrich, St. Louis, Mo.) with 10 mM HEPES, 1 mM sodium pyruvate, 1×MEM nonessential amino acids, and 100 units mL^−1 penicillin streptomycin (Cellgro), supplemented with 10% certified heat inactivated fetal bovine serum (Sigma-Aldrich, St. Louis, Mo.), at 37° C. in a humidified 5% CO2 incubator. For nuclei visualisation, Jurkat cells were incubated with Hoechst 33258, at a final concentration of 1 μg mL^−1, at 37° C. for 20 minutes.\nCells were checked for viability using Live/Dead stain (Invitrogen) following the manufacturer's protocol. For high resolution microscopy, 10^6 cells were fixed in a 5% formalin solution (Sigma-Aldrich, St. Louis, Mo.) for 15 minutes at 37° C., washed three times with cold PBS, and resuspended in 100 μL of ice cold 90% methanol. Immunostaining was performed on fixed cells using […] for DNA staining, mouse α-calnexin (Abcam) for ER staining, and rabbit α-profilin-1 (Cell Signaling), as a cytoplasmic localized protein. Incubation with the primary antibody for one hour at room temperature was followed by three wash steps with a solution of 2% BSA in PBS and incubation for 40 minutes at room temperature with the following secondary antibodies: Alexa 488 α-mouse (Invitrogen) and goat α-rabbit TRITC (Southern Biotech). To monitor calcium signaling, Jurkat cells were incubated with 5 μM Fluo-3 (Invitrogen) for 20 minutes at 37° C., washed with cold PBS, and loaded into the cell traps. Trapped cells were stimulated with ionomycin (Sigma, St. Louis, Mo.) at various concentrations to release intracellular calcium.\nBefore each experiment, the microfluidic devices were primed using a solution of 2% BSA in PBS to remove any air bubbles and limit undesirable cell adhesion to the wall. A pressure difference of 3.5 kPa (5.5 kPa for devices with upstream serial-dilution gradient generator) created by gravity was used to drive the flow, resulting to an average flow rate of ˜2 μL h^−1. Cell loading was obtained by pipetting 2 μL of 5×10^6 cell mL^−1 of cell suspension on the chip positioned on the microscope stage. Further experiments (staining, stimulation) were performed by adding 5 μL of 4× chemicals in the inlet hole and flowing over the trapped cells for the desired time. All experiments were performed in a microcontrolled environment (temperature set at 37° C. in a humidified 5% CO2 environment).\nA […] (SIMCA-P, Umetrics) was run on a known dataset of objects to determine the two most informative predictors of the number of cells contained in an object. The perimeter and the extent (ratio of pixels in the object to pixels in the total bounding box) were found as being the most informative. To quantify single cell trapping efficiency, the distribution of objects in the perimeter-extent space was fitted to a 2-component Gaussian mixture model for each chamber trap array. The maximum likelihood parameters from each of the two subpopulations were retrieved and represented respectively the percentage of single cell objects and multiple cell objects. Single cell response intensities were obtained by tracking the mean intensity of each object considered as a single cell in the overlaid mask and image over time.\nThe present trap arrays can also be easily integrated with upstream microfluidic components capable of multiplexing experiments, where cells can be exposed to different extracellular conditions on a single chip. […] After loading cells containing Fluo-3, more than 1,000 individual cells were monitored for an hour after the addition of different concentrations of the calcium ionophore ionomycin. Ionomycin increases intracellular calcium via mobilization of both extracellular and intracellular calcium stores in T cells. As expected, increased concentration of stimulus lead to increased average intracellular calcium concentration (FIG. 17). […]"}, "[2]": {"tested_on": "human embryonic kidney 293 cells", "conditions": "clonal HEK 293 cells challenged with caffeine; cited from earlier work"}}, "data": [{"smiles": "C[C@H](CCC(=O)O)C[C@H](C)C[C@H](C)C(=O)/C=C(\\O)[C@H](C)C[C@H](C)C/C=C/[C@@H](C)[C@@H](O)[C@@H](C)[C@@H](O)C[C@@H]1CC[C@@](C)([C@H]2CC[C@@](C)([C@@H](C)O)O2)O1", "note": "[ionomycin]", "values": [{"measurement": "% Responding Cells", "setting": "[1]; ionomycin 0.08 μM, chamber 8, 250 tracked cells", "value": 4, "unit": "%"}, {"measurement": "% Responding Cells", "setting": "[1]; ionomycin 0.2 μM, chamber 7, 306 tracked cells", "value": 17, "unit": "%"}, {"measurement": "% Responding Cells", "setting": "[1]; ionomycin 0.5 μM, chamber 6, 273 tracked cells", "value": 19.1, "unit": "%"}, {"measurement": "% Responding Cells", "setting": "[1]; ionomycin 0.8 μM, chamber 5, 287 tracked cells", "value": 25.4, "unit": "%"}, {"measurement": "% Responding Cells", "setting": "[1]; ionomycin 1.4 μM, chamber 4, 322 tracked cells", "value": 31.1, "unit": "%"}, {"measurement": "% Responding Cells", "setting": "[1]; ionomycin 1.8 μM, chamber 3, 263 tracked cells", "value": 31.9, "unit": "%"}, {"measurement": "% Responding Cells", "setting": "[1]; ionomycin 2.2 μM, chamber 2, 328 tracked cells", "value": 33.2, "unit": "%"}, {"measurement": "% Responding Cells", "setting": "[1]; ionomycin 2.5 μM, chamber 1, 342 tracked cells", "value": 44, "unit": "%"}]}, {"smiles": "Cn1c(=O)c2c(ncn2C)n(C)c1=O", "note": "[caffeine]", "values": [{"measurement": "cells responding with an elevation in intracellular calcium", "setting": "[2]", "value": 40, "unit": "%"}]}]}
